For assay [1], the target named is T1, RhlR (Pseudomonas aeruginosa, UniProt P54292).
T1 construct: expressed in transfected cells; host or cells: E. coli JLD271 (K-12 ΔlacX74 sdiA271::Cam) carrying pJN105-R2 (RhlR expression) and pSC11-rhlI (rhlI'-lacZ reporter)
The following applies: P. aeruginosa RhlR reporter systems; reference number not given; cited from earlier work.

For assay [2], the target named is T1, RhlR. The assay can be described thus: P. aeruginosa RhlR reporter agonism assay. The assay is classed as cell-based. On the procedure:
(§1) RhlR activity in E. coli strain JLD271 (ΔsdiA) was measured via a β-galactosidase reporter (rhI-lacZ) using the Promega Beta-Glo Assay System as previously described. RhlR activity in P. aeruginosa PA14 (ΔrhlIΔlasI) was measured via a GFP reporter (rhlA-gfp). […] See Supporting Information for both reporter protocols.
(§2) Supporting Information — Aguirre-Figueroa et al.
P. aeruginosa RhlR reporter assay. RhlR activity in P. aeruginosa PA14 ΔrhlIΔlasI was measured via a GFP reporter. Briefly, a single colony of P. aeruginosa strain PA14 ΔrhlIΔlasI harboring the transcriptional fusion reporter pPROBE-GT rhlA-GFP (Table S1) was grown in LB medium with 40 μg/mL gentamicin overnight (~20 h). The culture was diluted 1:100 in fresh LB medium, without antibiotic, to an OD600 = 0.25 (0.22–0.30) (~1 h). Aliquots (2 μL) of compound DMSO stock solution or serial dilution were added to the inner wells (i.e., non-periphery rows) of a black, clear bottom 96-well plate. To 12 inner wells, DMSO alone (vehicle) was added to serve as controls (negative and positive). For the six negative control wells (no BHL), 198 μL of bacterial culture plus OdDHL (to achieve 10 μM) were added. […] After incubation, the OD600 and GFP production (excitation at 500 nm, emission at 540 nm) were read for each well using a plate reader. […]

Assay [3] addresses T1, RhlR. The assay is described as follows: E. coli (JLD271) RhlR reporter agonism assay (no BHL added). The following applies: for Emax: read-out: Max Activation (RhlR), E. coli JLD271 RhlR reporter, no BHL added, high concentrations. The assay is classed as cell-based. On the procedure: (§3) To start, the sulfonyl HLs were evaluated for their ability to antagonize RhlR using a previously described E. coli strain (JLD271) harboring a RhlR expression plasmid and a rhlI reporter plasmid. This E. coli reporter produces RhlR, and protein activity in the presence of an added small molecule can be measured via the production of β-galactosidase as quantified via luminescence (see Methods). Compounds were screened in competition against RhlR’s native ligand, BHL (at its EC50 value in this strain, 10 μM), over a range of concentrations to generate antagonism dose–response curves (see Supporting Information) and calculate IC50 values (listed in Table ). A small set of compounds was also screened for RhlR agonism in the E. coli reporter; the agonism assay format was identical to the antagonism assay, except no BHL was added.
as §1, §2
(§4) E. coli and P. aeruginosa RhlR reporter assay protocols.
E. coli RhlR reporter assay. RhlR activity in E. coli strain JLD271 (ΔsdiA) was measured via a β-galactosidase reporter using the Promega Beta-Glo® Assay System as previously described.10 A schematic of the reporter plasmids and assay protocol is shown in Scheme S1. Briefly, a single colony of E. coli JLD271 harboring the RhlR expression plasmid pJN105-R and the rhlI-lacZ transcriptional fusion reporter pSC11-R (Table S1) was grown in LB medium with 100 μg/mL ampicillin and 10 μg/mL gentamicin overnight (~16 h). The culture was diluted 1:10 in fresh LB medium and grown to an OD600 = 0.25 (0.23–0.28) (~0.5 h). Arabinose was added to a final concentration of 4 mg/mL to induce the expression of pJN105-R. Aliquots (2 μL) of compound DMSO stock solution or serial dilution were added to the inner wells (i.e., non-periphery rows) of a 96-well microtiter plate. To six inner wells, DMSO alone (vehicle) was added as a negative control. For agonism assays, BHL was added to six inner wells as a positive control (to achieve 1 mM). For antagonism assays, BHL was added to six inner wells as a positive control and to all of the other sample wells except for the vehicle control wells (to achieve 10 μM ). […]
After the incubation period, the OD600 of each well was measured using a plate reader. […] After incubation, luminescence of each well was measured using a plate reader. To determine levels of RhlR activity, raw luminescence was divided by OD600 to correct for growth variation and then normalized to the negative (0%) and positive (100%) control wells. […]

Assay [4] addresses T1, RhlR. The assay is described as follows: E. coli (JLD271) RhlR reporter antagonism assay, in competition with BHL. The assay is classed as cell-based. The following applies: for activity profile in RhlR: E. coli RhlR reporter dose-response curves; for max. RhlR inhibition (%): E. coli RhlR reporter, BHL at 10 μM set to 0%, media control set to 100%; for IC50: IC50, E. coli JLD271 RhlR reporter, against 10 μM BHL. On the procedure: as §3, §1, §2, §4
E. coli RhlR reporter assay. RhlR activity in E. coli strain JLD271 (ΔsdiA) was measured via a β-galactosidase reporter using the Promega Beta-Glo® Assay System as previously described.10 A schematic of the reporter plasmids and assay protocol is shown in Scheme S1. Briefly, a single colony of E. coli JLD271 harboring the RhlR expression plasmid pJN105-R and the rhlI-lacZ transcriptional fusion reporter pSC11-R (Table S1) was grown in LB medium with 100 μg/mL ampicillin and 10 μg/mL gentamicin overnight (~16 h). The culture was diluted 1:10 in fresh LB medium and grown to an OD600 = 0.25 (0.23–0.28) (~0.5 h). Arabinose was added to a final concentration of 4 mg/mL to induce the expression of pJN105-R. Aliquots (2 μL) of compound DMSO stock solution or serial dilution were added to the inner wells (i.e., non-periphery rows) of a 96-well microtiter plate. To six inner wells, DMSO alone (vehicle) was added as a negative control. For agonism assays, BHL was added to six inner wells as a positive control (to achieve 1 mM). For antagonism assays, BHL was added to six inner wells as a positive control and to all of the other sample wells except for the vehicle control wells (to achieve 10 μM ). Subculture (198 μL) was then dispensed into each inner well. To the outer (periphery) wells, 200 μL of water were added to maintain humidity during incubation. Plates were then incubated for 4 h (shaking) at 37 °C.
Scheme S1. Schematic of E. coli reporter plasmids and assay. (A) Representation of plasmids used in the heterologous reporter system. (B) General reporter assay workflow. BioRender used in […]
After the incubation period, the OD600 of each well was measured using a plate reader. Cell dilution plates were prepared by transferring 10 μL from the incubated culture plate wells to a fresh 96-well plate and adding 90 μL of 18 MΩ water to each well. Next, 10 μL aliquots of diluted Beta-Glo® reagent (1:2 with 18 MΩ water) were added to each well of a white 384-well microtiter plate, followed by 10 μL of culture from each well of the dilution plate. The 384-well plate was incubated (without shaking; i.e., static) for 30 min at 30 °C. After incubation, luminescence of each well was measured using a plate reader. To determine levels of RhlR activity, raw luminescence was divided by OD600 to correct for growth variation and then normalized to the negative (0%) and positive (100%) control wells.
Dose-response reporter assay data for compounds in the E. coli RhlR reporter.
Dose-response curves for RhlR antagonism by compounds against 10 μM BHL using the E. coli JLD271 RhlR reporter are provided below. Compound names are indicated on the x-axis of each plot.
All assays performed in triplicate as at least three separate biological replicates. […]

Assay [5] concerns bacterial growth. The assay can be described thus: Effect on bacterial growth (OD600 over time). The following applies: at >2 mM concentrations. The assay is classed as cell-based. On the procedure: All new compounds were fully characterized for purity and identity (see Supporting Information). […] The remaining compounds had no effect on growth over the concentration range tested. All compounds were tested in bacteriological assays in triplicate and in at least three separate trials using unique cultures. IC50 and EC50 values in reporter assays were calculated using GraphPad Prism software (version 9.0) with a variable slope sigmoidal curve fit.

The subject of assay [6] is other LuxR homologues. Further details: method as in Kim et al. The following applies: ref Kim et al.; cited from earlier work.

Results on eight molecules are retold here after PMC12456999, “Sulfonyl Homoserine Lactones Are Tunable Probes to Inhibit the Quorum Sensing Receptor RhlR and Reduce Swarming Motility in Pseudomonas aeruginosa” (ACS Infectious Diseases, 2025).

SMILES strings stand for the structures. Read-outs that look alike come from different tables or passages of the source. Marks after values point to notes of the source that are not given here.

T1 sequence (P54292 whole entry): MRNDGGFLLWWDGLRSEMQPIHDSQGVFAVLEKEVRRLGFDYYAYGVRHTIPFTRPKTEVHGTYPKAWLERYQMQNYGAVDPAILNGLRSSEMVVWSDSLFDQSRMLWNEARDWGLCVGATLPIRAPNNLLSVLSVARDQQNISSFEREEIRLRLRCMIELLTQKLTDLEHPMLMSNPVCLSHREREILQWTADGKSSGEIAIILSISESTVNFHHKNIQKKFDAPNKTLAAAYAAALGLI

For `CCCC(=O)N[C@H]1CCOC1=O` [BHL, N-butanoyl L-homoserine lactone, reference compound], the concentration for a half-maximal effect (EC50) in assay [1] is 5 to 10 µM; in assay [2], 4.47 µM; in assay [3], 10 µM. In assay [3], the IC50 is 8.73 µM.

Take `O=C1OCC[C@@H]1NS(=O)(=O)Cc1ccc(C(F)(F)F)cc1` [Compound 15, 4-CF3 BnSHL]: in assay [4], the “activity profile in RhlR” value is listed as “partial agonist” and the “max. RhlR inhibition (%)” value was 35 ^f %. The Emax in assay [3] was 38%.

As for `O=C1OCC[C@@H]1NS(=O)(=O)c1ccccc1Cl` [Compound 27, 2-chloro BSHL], the “effect on bacterial growth” value in assay [5] is “modest effect on bacterial growth”. Moreover, in assay [4], the “max. RhlR inhibition (%)” value was determined as 93% and the IC50 amounted to 545 µM.

For `O=C1OCC[C@@H]1NS(=O)(=O)Cc1cccc(Cl)c1` [Compound 33, 3-Cl BnSHL], the “effect on bacterial growth” value in assay [5] is recorded as “modest effect on bacterial growth”. The same molecule yielded a potency gain in assay [4] (33 vs 16, 43 vs 24, 86 vs 45, E. coli RhlR reporter IC50) of no more than 40 fold. Further, in assay [4], the “max. RhlR inhibition (%)” value stood at 99% and the IC50 worked out at 125 µM.

With `O=C1OCC[C@@H]1NS(=O)(=O)c1ccc(Br)cc1` [Compound 35, 4-bromo BSHL], in assay [5], the “effect on bacterial growth” value is reported as “modest effect on bacterial growth”. Besides, in assay [4], the “max. RhlR inhibition (%)” value is on record as 99% and the IC50 amounted to 166 µM.

Take `O=C1OCC[C@@H]1NS(=O)(=O)c1cc(Cl)cc(Cl)c1` [Compound 50, 3,5-Cl-BSHL]: the “activity profile in RhlR” value in assay [4] was “partial agonist behavior”. For the same molecule, the Emax in assay [3] came to 30%.

As for `O=C1OCC[C@@H]1NS(=O)(=O)c1ccccc1` [Compound 57], in assay [6], the “antagonism of other LuxR homologues” value is listed as roughly 50%. For the same molecule, in assay [4], the “max. RhlR inhibition (%)” value turned out to be 93% and the IC50 was 715 µM.

For the molecule `O=C1OCC[C@@H]1NS(=O)(=O)c1ccc(F)c(Cl)c1` [Compound 64, 3-Cl, 4-F BSHL], the “effect on bacterial growth” value in assay [5] was “modest effect on bacterial growth”. In addition, the “fold higher potency relative to 3,4-di-Cl BSHL (43)” value in assay [4] (E. coli RhlR reporter IC50) is given as 2 fold. Besides, in assay [4], the “max. RhlR inhibition (%)” value came to 90% and the half-maximal inhibitory concentration (IC50) came out at 31.3 µM.
